These results are taken from ChEMBL document CHEMBL1201862, “PubChem BioAssay data set” (2004).

Holding throughout (format): functional
A short description of assay [1]: Luminescence Cell-Based Dose Response HTS to Identify Activators of Luciferase Translation or Activity in H4 […] Cells. [Related pubchem assays: 1829 (Project Summary), 1814 (Primary HTS)].
Another assay deals with H4. Kind of assay: Luminescence Cell-Based Dose Response HTS to Identify Activators of 5'UTR Stem-Loop Driven Prion Protein mRNA Translation in H4 Neuroglioblastoma Cells. [Related pubchem assays: 1829 (Project Summary), 1814 (Primary HTS)]. As to conditions: Homo sapiens.
For a further assay, the target named is T1, Caspase-3 (Homo sapiens, UniProt P42574).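 Note: Dose-response selectivity test against caspase-3 for candidate inhibitors of sentrin-specific proteases (SENPs).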
T1 sequence (P42574 whole entry): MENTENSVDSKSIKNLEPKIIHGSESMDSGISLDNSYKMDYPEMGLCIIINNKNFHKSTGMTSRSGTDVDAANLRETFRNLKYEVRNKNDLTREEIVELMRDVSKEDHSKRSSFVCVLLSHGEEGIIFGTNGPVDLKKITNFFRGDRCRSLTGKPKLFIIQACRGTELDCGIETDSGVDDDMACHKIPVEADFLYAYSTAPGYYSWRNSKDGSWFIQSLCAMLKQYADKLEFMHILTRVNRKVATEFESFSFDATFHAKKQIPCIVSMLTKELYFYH

The target of assay [2] is T2, Sentrin-specific protease 7 (Homo sapiens, UniProt Q9BQF6).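 Note: Luminescence-based dose-response confirmation of ultra-high-throughput screening hits, measuring inhibition of SENP7.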
T2 sequence (Q9BQF6 whole entry): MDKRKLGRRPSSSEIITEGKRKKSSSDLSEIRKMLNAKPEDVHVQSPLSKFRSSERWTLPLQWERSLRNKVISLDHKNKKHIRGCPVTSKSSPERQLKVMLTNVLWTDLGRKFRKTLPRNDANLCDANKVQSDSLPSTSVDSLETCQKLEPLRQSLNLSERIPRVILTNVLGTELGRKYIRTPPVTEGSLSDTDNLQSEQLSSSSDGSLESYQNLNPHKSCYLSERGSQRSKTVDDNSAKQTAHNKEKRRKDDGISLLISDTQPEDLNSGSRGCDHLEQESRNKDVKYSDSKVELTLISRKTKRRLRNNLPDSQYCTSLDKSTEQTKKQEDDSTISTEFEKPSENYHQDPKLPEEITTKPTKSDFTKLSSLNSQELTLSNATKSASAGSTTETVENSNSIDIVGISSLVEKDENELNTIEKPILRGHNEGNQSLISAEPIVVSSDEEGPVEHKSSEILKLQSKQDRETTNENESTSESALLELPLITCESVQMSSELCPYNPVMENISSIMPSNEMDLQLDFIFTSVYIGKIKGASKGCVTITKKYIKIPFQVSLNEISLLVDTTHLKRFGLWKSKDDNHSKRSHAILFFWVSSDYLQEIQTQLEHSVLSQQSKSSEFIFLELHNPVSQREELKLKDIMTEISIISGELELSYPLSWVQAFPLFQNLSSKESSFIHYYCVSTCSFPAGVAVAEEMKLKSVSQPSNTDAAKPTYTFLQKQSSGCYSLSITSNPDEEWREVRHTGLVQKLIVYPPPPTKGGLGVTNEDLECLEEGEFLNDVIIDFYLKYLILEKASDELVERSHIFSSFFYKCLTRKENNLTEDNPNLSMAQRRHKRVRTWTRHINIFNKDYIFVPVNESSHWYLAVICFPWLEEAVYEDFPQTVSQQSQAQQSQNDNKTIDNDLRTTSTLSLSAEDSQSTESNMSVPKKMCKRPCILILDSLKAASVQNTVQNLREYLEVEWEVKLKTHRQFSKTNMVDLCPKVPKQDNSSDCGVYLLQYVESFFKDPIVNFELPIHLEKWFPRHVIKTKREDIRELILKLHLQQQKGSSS

For assay [3], the target named is Tyrosine-protein kinase SYK (Homo sapiens, UniProt P43405).
Assay [4] deals with Serine/threonine-protein kinase 17A (Homo sapiens, UniProt Q9UEE5).
Assay [5] has as its target Cell division cycle 7-related protein kinase (Homo sapiens, UniProt O00311).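 Note: value obtained from a kinome-wide kinase panel.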
Assay [6] has as its target Tyrosine-protein kinase ITK/TSK (Homo sapiens, UniProt Q08881).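 Note: affinity for ITK measured as one member of a broad kinase panel profiling binding across the kinome.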
The target of assay [7] is MAP/microtubule affinity-regulating kinase 3 (Homo sapiens, UniProt P27448).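 Note: MARK3 affinity measured as one member of a kinome panel.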
Another assay concerns the target Insulin receptor (Homo sapiens, UniProt P06213).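 Note: insulin receptor kinase tested as one member of a kinome-wide kinase panel.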
Assay [8] has as its target Proto-oncogene tyrosine-protein kinase Src (Homo sapiens, UniProt P12931).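 Note: SRC entry within a kinome-wide kinase profiling panel.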
For assay [9], the target named is MAP kinase-activated protein kinase 3 (Homo sapiens, UniProt Q16644).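 Note: value comes from a kinome-wide profiling panel in which MAPKAPK3 is one of the panel members.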
In assay [10] the target is Interleukin-1 receptor-associated kinase 4 (Homo sapiens, UniProt Q9NWZ3).
Assay [11] deals with RAC-alpha serine/threonine-protein kinase (Homo sapiens, UniProt P31749).
In assay [12] the target is Mitogen-activated protein kinase kinase kinase kinase 5 (Homo sapiens, UniProt Q9Y4K4).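 Note: measured as one member of a kinome-spanning kinase panel.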
The target of assay [13] is Serine/threonine-protein kinase pim-2 (Homo sapiens, UniProt Q9P1W9).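 Note: value comes from a broad kinase panel profiling study in which PIM2 was one of the panel members.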
For assay [14], the target named is STE20-like serine/threonine-protein kinase (Homo sapiens, UniProt Q9H2G2).
Assay [15] has as its target Serine/threonine-protein kinase PLK1 (Homo sapiens, UniProt P53350).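 Note: PLK1 measured as one member of a kinome-wide profiling panel.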
Assay [16] deals with BDNF/NT-3 growth factors receptor (Homo sapiens, UniProt Q16620).
Assay [17] deals with Serine/threonine-protein kinase BRSK1 (Homo sapiens, UniProt Q8TDC3).
Assay [18] has as its target Platelet-derived growth factor receptor beta (Homo sapiens, UniProt P09619).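 Note: value comes from a kinome panel, with PDGFRB tested as one panel member.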
For assay [19], the target named is Protein kinase C zeta type (Homo sapiens, UniProt Q05513).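 Note: measured as one member of a broad kinase profiling panel.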
Assay [20] deals with Mitogen-activated protein kinase 13 (Homo sapiens, UniProt O15264).
The target in assay [21] is Calcium/calmodulin-dependent protein kinase type II subunit beta (Homo sapiens, UniProt Q13554).
Assay [22] addresses G protein-coupled receptor kinase 5 (Homo sapiens, UniProt P34947). Nature of the assay: Navigating the Kinome. Panel member name: GPRK5.
Assay [23] deals with High affinity nerve growth factor receptor (Homo sapiens, UniProt P04629).

Molecules are shown by their SMILES. The source made the active and inactive calls. Where only a bound is given, the exact number is not on record here.

Chain of Calcium/calmodulin-dependent protein kinase type II subunit beta (Q13554 whole entry): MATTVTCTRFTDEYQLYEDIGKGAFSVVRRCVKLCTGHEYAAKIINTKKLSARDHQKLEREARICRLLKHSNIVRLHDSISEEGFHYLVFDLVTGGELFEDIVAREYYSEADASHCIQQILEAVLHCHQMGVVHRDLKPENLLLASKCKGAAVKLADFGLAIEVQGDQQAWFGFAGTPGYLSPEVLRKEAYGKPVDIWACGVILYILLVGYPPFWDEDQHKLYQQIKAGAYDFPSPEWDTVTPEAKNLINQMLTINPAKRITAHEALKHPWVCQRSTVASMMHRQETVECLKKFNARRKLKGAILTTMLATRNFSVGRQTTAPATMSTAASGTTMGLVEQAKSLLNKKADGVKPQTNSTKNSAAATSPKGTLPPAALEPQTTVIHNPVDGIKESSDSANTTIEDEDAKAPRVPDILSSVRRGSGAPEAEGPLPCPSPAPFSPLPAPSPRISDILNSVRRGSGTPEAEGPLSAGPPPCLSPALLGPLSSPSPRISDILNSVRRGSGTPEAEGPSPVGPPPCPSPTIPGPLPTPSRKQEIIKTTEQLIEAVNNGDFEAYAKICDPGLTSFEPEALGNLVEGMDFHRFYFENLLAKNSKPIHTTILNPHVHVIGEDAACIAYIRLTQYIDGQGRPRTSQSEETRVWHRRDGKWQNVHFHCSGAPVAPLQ
Chain of G protein-coupled receptor kinase 5 (P34947 whole entry): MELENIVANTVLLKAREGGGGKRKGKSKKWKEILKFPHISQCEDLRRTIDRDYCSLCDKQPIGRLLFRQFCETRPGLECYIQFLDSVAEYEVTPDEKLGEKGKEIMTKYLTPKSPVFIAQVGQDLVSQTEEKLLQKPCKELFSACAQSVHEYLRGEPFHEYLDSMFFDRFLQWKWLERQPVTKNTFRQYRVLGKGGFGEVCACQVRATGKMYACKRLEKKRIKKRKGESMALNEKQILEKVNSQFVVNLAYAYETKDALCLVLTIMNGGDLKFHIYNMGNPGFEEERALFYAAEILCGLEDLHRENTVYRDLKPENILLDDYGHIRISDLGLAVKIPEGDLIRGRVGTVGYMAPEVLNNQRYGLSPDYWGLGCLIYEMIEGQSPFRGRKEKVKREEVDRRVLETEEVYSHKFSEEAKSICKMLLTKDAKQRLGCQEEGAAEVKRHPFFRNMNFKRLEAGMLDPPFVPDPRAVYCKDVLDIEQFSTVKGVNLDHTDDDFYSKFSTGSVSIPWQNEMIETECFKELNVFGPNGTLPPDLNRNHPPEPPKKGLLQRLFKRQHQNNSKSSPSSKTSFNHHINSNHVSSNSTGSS
Chain of Proto-oncogene tyrosine-protein kinase Src (P12931 2-536 limits assumed): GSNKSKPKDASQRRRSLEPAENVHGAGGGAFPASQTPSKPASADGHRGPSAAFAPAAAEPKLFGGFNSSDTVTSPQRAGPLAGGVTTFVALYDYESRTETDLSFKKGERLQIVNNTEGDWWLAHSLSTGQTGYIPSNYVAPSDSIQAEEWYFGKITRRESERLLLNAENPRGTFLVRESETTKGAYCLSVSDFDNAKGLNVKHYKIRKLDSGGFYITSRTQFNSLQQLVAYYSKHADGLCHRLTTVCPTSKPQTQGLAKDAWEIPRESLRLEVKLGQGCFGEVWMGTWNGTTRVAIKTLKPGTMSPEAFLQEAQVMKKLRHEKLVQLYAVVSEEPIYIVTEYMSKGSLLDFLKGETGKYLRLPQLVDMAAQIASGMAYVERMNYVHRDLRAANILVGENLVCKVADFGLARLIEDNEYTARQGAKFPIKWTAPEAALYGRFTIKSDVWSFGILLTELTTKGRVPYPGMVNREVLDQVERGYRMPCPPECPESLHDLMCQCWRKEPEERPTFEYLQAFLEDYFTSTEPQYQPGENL
Chain of BDNF/NT-3 growth factors receptor (Q16620 whole entry): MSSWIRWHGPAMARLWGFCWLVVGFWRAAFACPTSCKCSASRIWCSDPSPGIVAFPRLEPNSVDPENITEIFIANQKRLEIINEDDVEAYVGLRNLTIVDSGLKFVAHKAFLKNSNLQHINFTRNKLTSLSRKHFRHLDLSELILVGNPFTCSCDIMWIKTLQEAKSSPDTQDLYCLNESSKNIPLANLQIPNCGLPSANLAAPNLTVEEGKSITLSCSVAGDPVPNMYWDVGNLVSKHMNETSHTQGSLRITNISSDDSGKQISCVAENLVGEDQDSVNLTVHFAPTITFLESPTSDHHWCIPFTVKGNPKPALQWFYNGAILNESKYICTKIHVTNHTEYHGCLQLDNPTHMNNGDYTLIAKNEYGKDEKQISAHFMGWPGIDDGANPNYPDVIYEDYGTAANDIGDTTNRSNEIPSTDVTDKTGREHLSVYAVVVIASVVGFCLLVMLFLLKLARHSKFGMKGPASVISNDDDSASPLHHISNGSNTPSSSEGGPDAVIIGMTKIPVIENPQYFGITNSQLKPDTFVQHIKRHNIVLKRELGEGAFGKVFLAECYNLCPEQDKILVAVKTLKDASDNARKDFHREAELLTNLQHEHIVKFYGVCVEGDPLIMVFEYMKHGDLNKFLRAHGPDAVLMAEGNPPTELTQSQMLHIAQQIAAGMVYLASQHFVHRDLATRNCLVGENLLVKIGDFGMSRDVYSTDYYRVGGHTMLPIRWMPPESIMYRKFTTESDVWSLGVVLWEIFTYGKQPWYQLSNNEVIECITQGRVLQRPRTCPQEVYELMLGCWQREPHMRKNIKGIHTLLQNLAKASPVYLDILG
Chain of Mitogen-activated protein kinase kinase kinase kinase 5 (Q9Y4K4 whole entry): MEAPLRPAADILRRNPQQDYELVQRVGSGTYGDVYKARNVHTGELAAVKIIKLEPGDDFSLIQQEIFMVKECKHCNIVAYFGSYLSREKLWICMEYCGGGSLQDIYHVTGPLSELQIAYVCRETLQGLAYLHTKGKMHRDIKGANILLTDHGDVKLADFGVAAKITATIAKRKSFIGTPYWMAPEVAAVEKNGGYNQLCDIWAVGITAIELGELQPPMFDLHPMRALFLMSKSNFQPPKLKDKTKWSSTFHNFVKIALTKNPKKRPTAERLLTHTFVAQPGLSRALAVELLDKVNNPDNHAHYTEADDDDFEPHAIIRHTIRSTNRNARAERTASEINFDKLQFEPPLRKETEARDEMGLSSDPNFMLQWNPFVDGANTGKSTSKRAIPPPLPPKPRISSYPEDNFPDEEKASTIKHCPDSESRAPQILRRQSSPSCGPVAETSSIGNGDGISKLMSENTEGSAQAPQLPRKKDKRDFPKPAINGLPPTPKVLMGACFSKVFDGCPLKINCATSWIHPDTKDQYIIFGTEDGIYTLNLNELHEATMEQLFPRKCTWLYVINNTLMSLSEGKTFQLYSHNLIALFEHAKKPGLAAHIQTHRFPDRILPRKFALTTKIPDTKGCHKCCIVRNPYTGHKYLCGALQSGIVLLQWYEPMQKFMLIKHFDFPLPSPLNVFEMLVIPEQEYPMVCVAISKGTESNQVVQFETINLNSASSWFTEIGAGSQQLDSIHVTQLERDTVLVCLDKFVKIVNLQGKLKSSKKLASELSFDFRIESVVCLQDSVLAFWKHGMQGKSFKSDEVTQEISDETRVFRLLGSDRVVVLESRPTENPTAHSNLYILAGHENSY
Chain of RAC-alpha serine/threonine-protein kinase (P31749 whole entry): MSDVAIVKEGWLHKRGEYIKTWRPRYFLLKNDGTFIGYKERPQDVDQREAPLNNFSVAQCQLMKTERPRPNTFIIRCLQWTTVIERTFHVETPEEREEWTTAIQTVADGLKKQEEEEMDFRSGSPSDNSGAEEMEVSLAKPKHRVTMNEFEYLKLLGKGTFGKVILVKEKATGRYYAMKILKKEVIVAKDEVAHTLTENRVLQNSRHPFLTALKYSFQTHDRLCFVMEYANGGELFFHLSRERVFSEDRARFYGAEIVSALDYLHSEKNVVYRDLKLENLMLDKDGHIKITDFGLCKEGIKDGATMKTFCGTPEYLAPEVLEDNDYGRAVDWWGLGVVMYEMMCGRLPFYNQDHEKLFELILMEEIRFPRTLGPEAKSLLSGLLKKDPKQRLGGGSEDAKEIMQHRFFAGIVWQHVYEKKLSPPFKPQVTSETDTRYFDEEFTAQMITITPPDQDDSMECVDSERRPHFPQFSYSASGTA
Chain of MAP/microtubule affinity-regulating kinase 3 (P27448 whole entry): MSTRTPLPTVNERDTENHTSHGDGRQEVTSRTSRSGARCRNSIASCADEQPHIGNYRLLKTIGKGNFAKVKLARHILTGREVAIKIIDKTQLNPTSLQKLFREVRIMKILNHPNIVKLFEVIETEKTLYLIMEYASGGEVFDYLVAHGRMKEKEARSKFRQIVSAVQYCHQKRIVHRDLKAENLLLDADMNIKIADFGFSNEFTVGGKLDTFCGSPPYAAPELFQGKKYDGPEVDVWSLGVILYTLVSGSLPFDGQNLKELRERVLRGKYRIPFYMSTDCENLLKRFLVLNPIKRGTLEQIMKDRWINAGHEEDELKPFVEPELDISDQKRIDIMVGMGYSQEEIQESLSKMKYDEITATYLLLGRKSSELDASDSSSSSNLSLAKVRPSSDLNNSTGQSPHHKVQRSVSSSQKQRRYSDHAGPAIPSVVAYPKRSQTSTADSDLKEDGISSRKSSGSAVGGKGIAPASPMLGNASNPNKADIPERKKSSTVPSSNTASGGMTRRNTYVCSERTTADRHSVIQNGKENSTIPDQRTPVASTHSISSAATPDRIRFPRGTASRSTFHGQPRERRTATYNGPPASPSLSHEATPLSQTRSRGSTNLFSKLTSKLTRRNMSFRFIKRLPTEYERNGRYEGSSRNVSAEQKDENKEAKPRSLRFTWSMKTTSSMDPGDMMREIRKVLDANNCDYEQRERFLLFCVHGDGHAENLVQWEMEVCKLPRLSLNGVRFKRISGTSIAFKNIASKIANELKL
Chain of Serine/threonine-protein kinase pim-2 (Q9P1W9 whole entry): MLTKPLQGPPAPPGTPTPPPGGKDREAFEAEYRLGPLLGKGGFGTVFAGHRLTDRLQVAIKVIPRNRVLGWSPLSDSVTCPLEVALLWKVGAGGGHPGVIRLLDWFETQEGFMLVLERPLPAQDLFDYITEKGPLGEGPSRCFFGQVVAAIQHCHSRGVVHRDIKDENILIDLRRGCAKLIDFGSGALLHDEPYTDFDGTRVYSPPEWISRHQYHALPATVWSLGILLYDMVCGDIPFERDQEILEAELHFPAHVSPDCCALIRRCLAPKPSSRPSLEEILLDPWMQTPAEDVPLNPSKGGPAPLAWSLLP

As a reminder, the EC50 is the midpoint of the concentration-response curve. What is called IC50 is the point on the concentration scale where inhibition reaches its midpoint. In the case of `O=C1C2=[N+]([O-])[C@H]3CCCC[C@H]3[N+]([O-])=C2c2ccccc21`, the figures for the half-maximal effective concentration (EC50) (in assay [1]; in the assay on H4) were 14.9 µM (active) and 23.5 µM (active), respectively. Moreover, the IC50 at Caspase-3 was 15.4 µM (active); in assay [2], 16.8 µM (active).
The Ki is a dissociation constant, usually derived from enzyme kinetics or from competition with a known ligand. On to `NC1CCC(Nc2nccc(-c3c[nH]c4ncccc34)n2)CC1` (stereo unspecified), for which the Ki in assay [3] is > 1.58 µM (inactive); in assay [4], 0.0316 µM (active); in [5], 0.00501 µM (active); in assay [6] it was 0.631 µM (active); in assay [7] it was 0.0501 µM (active); at Insulin receptor it was 0.501 µM (active). Moreover, the Ki was > 2 µM (inactive) in assay [8]; > 10 µM (inactive) in [9]; 0.0501 µM (active) in assay [10]; 1.26 µM (active) in [11]; 0.0251 µM (active) in [12]; 0.501 µM (active) in assay [13]. Also, the inhibition constant (Ki) in [14] is 0.398 µM (active); in assay [15] it was > 7.94 µM (inactive); in assay [16], > 5.01 µM (inactive); in assay [17], 5.01 µM (active).
In the case of `OCc1cc(-c2ccc3[nH]ncc3c2)on1`, the Ki in assay [18] is 50.1 µM (active).
In the case of `COC(C(=O)N1Cc2[nH]nc(NC(=O)c3ccc(N4CCN(C)CC4)cc3)c2C1)c1ccccc1` (stereo unspecified), the Ki is > 7.94 µM (inactive) in [19], > 7.94 µM (inactive) in assay [20], 7.94 µM (active) in [21] and > 3.98 µM (inactive) in assay [22].
Turning to `CC(C)(O)c1cn(-c2ccc3[nH]ncc3c2)nn1`, in [23], the Ki is 79.4 µM (active).
